Earlier results, collected in patent publication EP1982712A1 (priority 2005, dated 2007).

Conditions: for Clearance (route of elimination) / distribution volumes / time to reach the maximum concentration: in vivo; for time to reach the maximum concentration: po

For `CCC(C)n1ncn(-c2ccc(N3CCN(c4ccc(OCC5COC(Cn6cncn6)(c6ccc(Cl)cc6Cl)O5)cc4)CC3)cc2)c1=O` (stereo not shown) [itraconazole, Itraconazole], the bioavailability (after oral administration) is listed as “about 50%”, the “Clearance (route of elimination)” value is listed as “cleared mainly through hepatic metabolism” and the distribution volumes is listed as “about 10.7 l/kg”. The “time to reach the maximum concentration” value was “up to four”.
For `OC(Cn1cncn1)(Cn1cncn1)c1ccc(F)cc1F` [fluconazole, Fluconazole], the “Clearance (route of elimination)” value is given as “eliminated in a higher proportion in urine”, the distribution volumes is given as 0.7 to 1 L/kg and the “time to reach the maximum concentration” value is given as “two”.
